Assay results from patent publication US20230339886A1 (University of Florida Research Foundation, Incorporated, priority 2020, published 2023).
pEC50: −log10 of the molar value.

Target: T1, REV-ERBα LBD (human; residues 281-614 Δ324-422) (Homo sapiens, UniProt P20393, DEL324-422)
T1 construct: 6×Histag-REV-ERBα LBD (human; residues 281-614 Δ324-422); made in house; host or cells: Escherichia coli
Assay: TR-FRET corepressor interaction assay (REV-ERBα LBD, FITC-SMRT peptide)
Format: biochemical
Settings: Table 2, read-out: REVERBα agonism (EC50 class, FRET assay)
In short: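 Compound serial dilutions (in DMSO, triplicate) incubated 2 h at 4 °C; Tb donor excited at 340 nm, emission read at 495 nm and FITC acceptor at 520 nm. TR-FRET ratio (520/495 nm) plotted against ligand concentration and fitted to a sigmoidal dose-response curve.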

T1 sequence (P20393 with tags, fused parts or gaps DEL324-422): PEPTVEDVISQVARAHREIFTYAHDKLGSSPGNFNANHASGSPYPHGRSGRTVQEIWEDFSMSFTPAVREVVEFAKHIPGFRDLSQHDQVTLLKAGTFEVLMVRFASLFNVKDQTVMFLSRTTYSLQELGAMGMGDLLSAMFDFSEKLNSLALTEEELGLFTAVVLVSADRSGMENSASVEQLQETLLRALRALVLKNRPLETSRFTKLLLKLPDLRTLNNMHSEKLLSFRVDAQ
T1 sequence (Q9Y618 2335-2356 partner limits assumed): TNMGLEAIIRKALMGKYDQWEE

| SMILES | pEC50 |
| --- | --- |
| CC(C)S(=O)(=O)n1cc(CCNS(=O)(=O)N(C)C)c2ccc(-c3ccncc3)cc21 [Example 130, N′-{2-[6-(pyridin-4-yl)-1-isopropylsulfonyl-1H-indol-3-yl]ethyl}-N,N-dimethylsulfuric diamide] | < 5.52 |
| CCn1cc(CCNS(=O)(=O)N(C)C)c2ccc(-c3ccncc3)cc21 [Example 132, N′-{2-[6-(pyridin-4-yl)-1-ethyl-1H-indol-3-yl]ethyl}-N,N-dimethylsulfuric diamide] | < 5.52 |
| CN(C)S(=O)(=O)NCCc1cn(C2CC2)c2cc(-c3ccncc3)ccc12 [Example 134, N′-{2-[6-(pyridin-4-yl)-1-cyclopropyl-1H-indol-3-yl]ethyl}-N,N-dimethylsulfuric diamide] | < 5.52 |
| CN(C)S(=O)(=O)NCCc1cn(Cc2ccccc2Br)c2cc(-c3ccncc3)ccc12 [Example 140, N′-{2-[6-(pyridin-4-yl)-1-(2-bromobenzyl)-1H-indol-3-yl]ethyl}-N,N-dimethylsulfuric diamide] | < 5.52 |
| CN(C)S(=O)(=O)NCCc1cn(Cc2cccc(I)c2)c2cc(-c3ccncc3)ccc12 [Example 145, N-{2-[6-(pyridin-4-yl)-1-(3-iodobenzyl)-1H-indol-3-yl]ethyl}-N,N-dimethylsulfuric diamide] | < 5.52 |
| CN(C)S(=O)(=O)NCCc1cn(Cc2ccc(F)cc2)c2cc(-c3ccncc3)ccc12 [Example 146, N-{2-[6-(pyridin-4-yl)-1-(4-fluorobenzyl)-1H-indol-3-yl]ethyl}-N,N-dimethylsulfuric diamide] | 5.52 to 6.30 |
| COc1cccc(Cn2cc(CCNS(=O)(=O)N(C)C)c3ccc(-c4ccncc4)cc32)c1 [Example 147, N-{2-[6-(pyridin-4-yl)-1-(3-methoxybenzyl)-1H-indol-3-yl]ethyl}-N,N-dimethylsulfuric diamide] | 5.52 to 6.30 |
| CN(C)S(=O)(=O)NCCc1cn(Cc2cccc([N+](=O)[O-])c2)c2cc(-c3ccncc3)ccc12 [Example 148, N-{2-[6-(pyridin-4-yl)-1-(3-nitrobenzyl)-1H-indol-3-yl]ethyl}-N,N-dimethylsulfuric diamide] | 5.52 to 6.30 |
| CN(C)S(=O)(=O)NCCc1cn(Cc2ccc(F)cc2F)c2cc(-c3ccncc3)ccc12 [Example 149, N-{2-[6-(pyridin-4-yl)-1-(2,4-difluorobenzyl)-1H-indol-3-yl]ethyl}-N,N-dimethylsulfuric diamide] | 5.52 to 6.30 |
| CN(C)S(=O)(=O)NCCc1cn(Cc2ccccc2F)c2cc(-c3ccncc3)ccc12 [Example 150, N-{2-[6-(pyridin-4-yl)-1-(2-fluorobenzyl)-1H-indol-3-yl]ethyl}-N,N-dimethylsulfuric diamide] | 5.52 to 6.30 |
| CN(C)S(=O)(=O)NCCc1cn(C(=O)c2cc(Cl)cc(Cl)c2)c2cc(-c3ccncc3)ccc12 [Example 151, N′-{2-[6-(pyridin-4-yl)-1-(3,5-dichlorobenzoyl)-1H-indol-3-yl]ethyl}-N,N-dimethylsulfuric diamide] | < 5.52 |
| CN(C)S(=O)(=O)NCCn1cc(CC(F)(F)F)c2cc(Cl)ccc21 [Example 152, N-{2-[5-chloro-3-(2,2,2-trifluoroethyl)-1H-indol-1-yl]ethyl}-N,N-dimethylsulfuric diamide] | 5.52 to 6.30 |
| CN(C)S(=O)(=O)NCCn1cc(CC(F)(F)C(F)(F)F)c2cc(Cl)ccc21 [Example 153, N-{2-[5-chloro-3-(2,2,3,3,3-pentafluoropropyl)-1H-indol-1-yl]ethyl}-N,N-dimethylsulfuric diamide] | 5.52 to 6.30 |
| CN(C)S(=O)(=O)NCCc1cn(CCc2ccccc2)c2cc(-c3ccncc3)ccc12 [Example 154, N′-{2-[6-(pyridin-4-yl)-1-phenethyl-1H-indol-3-yl]ethyl}-N,N-dimethylsulfuric diamide] | 5.52 to 6.30 |
| CN(C)S(=O)(=O)NCCc1cn(CC(F)(F)F)c2cc(Br)ccc12 [Example 158, ({2-[6-bromo-1-(2,2,2-trifluoroethyl)-1H-indol-3-yl]ethyl}sulfamoyl)dimethylamine] | 5.52 to 6.30 |
| CC(c1ccccc1)n1cc(CCNS(=O)(=O)N(C)C)c2ccc(Br)cc21 (centres unmarked) [Example 159, ({2-[6-bromo-1-(1-phenylethyl)-1H-indol-3-yl]ethyl}sulfamoyl)dimethylamine] | 5.52 to 6.30 |
| CN(C)CCn1cc(CCNS(=O)(=O)N(C)C)c2ccc(Br)cc21 [Example 160, [2-(6-bromo-3-{2-[(dimethylsulfamoyl)amino]ethyl}-1H-indol-1-yl)ethyl]dimethylamine] | < 5.52 |
| CN(C)S(=O)(=O)NCCc1cn(Cc2ccccn2)c2cc(Br)ccc12 [Example 161, [(2-{6-bromo-1-[(pyridin-2-yl)methyl]-1H-indol-3-yl}ethyl)sulfamoyl]dimethylamine] | 5.52 to 6.30 |
| CN(C)S(=O)(=O)NCCc1cn(Cc2ccncc2)c2cc(Br)ccc12 [Example 162, [(2-{6-bromo-1-[(pyridin-4-yl)methyl]-1H-indol-3-yl}ethyl)sulfamoyl]dimethylamine] | 5.52 to 6.30 |
| CN(C)S(=O)(=O)NCCc1cn(Cc2cccnc2)c2cc(Br)ccc12 [Example 163, [(2-{6-bromo-1-[(pyridin-3-yl)methyl]-1H-indol-3-yl}ethyl)sulfamoyl]dimethylamine] | 5.52 to 6.30 |
| COC(=O)Cn1cc(CCNS(=O)(=O)N(C)C)c2ccc(Br)cc21 [Example 164, methyl 2-(6-bromo-3-(2-((N,N-dimethylsulfamoyl)amino)ethyl)-1H-indol-1-yl)acetate] | < 5.52 |
| CN(C)S(=O)(=O)NCCc1cn(CC(C)(C)C)c2cc(Br)ccc12 [Example 165, ({2-[6-bromo-1-(2,2-dimethylpropyl)-1H-indol-3-yl]ethyl}sulfamoyl)dimethylamine] | 5.52 to 6.30 |
| CNC(=O)Cn1cc(CCNS(=O)(=O)N(C)C)c2ccc(Br)cc21 [Example 166, 2-(6-bromo-3-(2-((N,N-dimethylsulfamoyl)amino)ethyl)-1H-indol-1-yl)-N-methylacetamide] | 5.52 to 6.30 |
| CN(C)C(=O)Cn1cc(CCNS(=O)(=O)N(C)C)c2ccc(Br)cc21 [Example 167, 2-(6-bromo-3-(2-((N,N-dimethylsulfamoyl)amino)ethyl)-1H-indol-1-yl)-N,N-dimethylacetamide] | 5.52 to 6.30 |
| Cc1cccc2c(CCNS(=O)(=O)N(C)C)cn(CC(C)C)c12 [Example 169, dimethyl({2-[7-methyl-1-(2-methylpropyl)-1H-indol-3-yl]ethyl}sulfamoyl)amine] | 5.52 to 6.30 |

The remaining lines, values ahead:

| pEC50 | SMILES |
| --- | --- |
| > 6.30 | CC(C)Cc1cn(CCN(C)S(=O)(=O)N(C)C)c2ncc(-c3ccncc3)cc12 [Example 125, dimethyl[methyl({2-[3-(2-methylpropyl)-5-(pyridin-4-yl)-1H-pyrrolo[2,3-b]pyridin-1-yl]ethyl})sulfamoyl]amine] |
| 5.52 to 6.30 | CC(C)Cc1cn(CCN(C)S(=O)(=O)C2CC2)c2ncc(-c3ccncc3)cc12 [Example 126, N-(2-(3-isobutyl-5-(pyridin-4-yl)-1H-pyrrolo[2,3-b]pyridin-1-yl)ethyl)-N-methylcyclopropanesulfonamide] |
| 5.52 to 6.30 | CN(C)S(=O)(=O)N(C)CCc1cn(C)c2cc(-c3ccncc3)ccc12 [Example 127, N′-{2-[6-(pyridin-4-yl)-1-methyl-1H-indol-3-yl]ethyl}-N′-methyl-N,N-dimethylsulfuric diamide] |
| 5.52 to 6.30 | CN(C)S(=O)(=O)NCCc1cn(C)c2cc(-c3ccncc3)ccc12 [Example 128, N′-{2-[6-(pyridin-4-yl)-1-methyl-1H-indol-3-yl]ethyl}-N,N-dimethylsulfuric diamide] |
| 5.52 to 6.30 | CC(C)n1cc(CCNS(=O)(=O)N(C)C)c2ccc(-c3ccncc3)cc21 [Example 129, N′-{2-[6-(pyridin-4-yl)-1-isopropyl-1H-indol-3-yl]ethyl}-N,N-dimethylsulfuric diamide] |
| 5.52 to 6.30 | CCN(CCc1cn(CC)c2cc(-c3ccncc3)ccc12)S(=O)(=O)N(C)C [Example 133, N′-{2-[6-(pyridin-4-yl)-1-ethyl-1H-indol-3-yl]ethyl}-N′-ethyl-N,N-dimethylsulfuric diamide] |
| > 6.30 | CC(C)Cn1cc(CCNS(=O)(=O)N(C)C)c2cc(Br)ccc21 [Example 135, ({2-[5-bromo-1-(2-methylpropyl)-1H-indol-3-yl]ethyl}sulfamoyl)dimethylamine] |
| 5.52 to 6.30 | CC(C)Cn1cc(CCNS(=O)(=O)N(C)C)c2c(Br)cccc21 [Example 136, ({2-[4-bromo-1-(2-methylpropyl)-1H-indol-3-yl]ethyl}sulfamoyl)dimethylamine] |
| > 6.30 | CN(C)S(=O)(=O)NCCc1cn(Cc2cccc(Cl)c2)c2cc(-c3ccncc3)ccc12 [Example 141, N-{2-[6-(pyridin-4-yl)-1-(3-chlorobenzyl)-1H-indol-3-yl]ethyl}-N,N-dimethylsulfuric diamide] |
| 5.52 to 6.30 | CN(C)S(=O)(=O)NCCc1cn(Cc2cccc(C(F)(F)F)c2)c2cc(-c3ccncc3)ccc12 [Example 142, N-{2-[6-(pyridin-4-yl)-1-(3-trifluoromethylbenzyl)-1H-indol-3-yl]ethyl}-N,N-dimethyl-sulfuric diamide] |
| > 6.30 | CN(C)S(=O)(=O)NCCc1cn(Cc2cccc(Br)c2)c2cc(-c3ccncc3)ccc12 [Example 143, N-{2-[6-(pyridin-4-yl)-1-(3-bromobenzyl)-1H-indol-3-yl]ethyl}-N,N-dimethylsulfuric diamide] |
| > 6.30 | CN(C)S(=O)(=O)NCCc1cn(Cc2cccc(F)c2)c2cc(-c3ccncc3)ccc12 [Example 144, N-{2-[6-(pyridin-4-yl)-1-(3-fluorobenzyl)-1H-indol-3-yl]ethyl}-N,N-dimethylsulfuric diamide] |
| > 6.30 | CC(C)Cn1cc(CCNS(=O)(=O)N(C)C)c2cc(F)c(Br)cc21 [Example 168, ({2-[6-bromo-5-fluoro-1-(2-methylpropyl)-1H-indol-3-yl]ethyl}sulfamoyl)dimethylamine] |
